Data as given in patent US20250136578A1 (Kolm Therapeutics Inc., priority 2023, published 2025).

Key:
Type in all cases: cell-based
AR / CBP ternary complex = AR / CBP ternary complex (Homo sapiens, UniProt P10275+Q92793); assay: Ternary complex formation assay (sandwich ELISA, AR capture, CBP antibody detection) in VCaP cell lysates; conditions: treated 1.5 hours, rabbit CBP or p300 antibody detection, average, read-out: Average Ternary Complex
Summary of the method: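 Sandwich ELISA: plates were coated with anti-AR antibody (AR441) and given lysates of VCaP cells treated 1.5 h with bifunctional compound in charcoal-stripped serum. Co-captured CBP or p300 was probed with rabbit mAbs and HRP secondary. Chemifluorescent signal (ex 570/em 585) was read at 0, 5 and 15 min.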

HEK-293 cells = assay: HEK-293 growth inhibition assay (CTG); conditions: Homo sapiens, HEK293, 72 h, 3 days
Experimental: HEK-293 cells (ATCC Cat #CRL-1573) are plated at 3×10^3 cells per well of a white plastic 96-well cluster plate (Thermo Scientific Nunc Cat #165306) in 200 uL DMEM (ATCC Cat #30-2002) media with 10% FBS (Gibco Cat #26140-079). Cluster plates are returned to the incubator (37*C/5% CO2) for 24 hours prior to treatment. Compounds (200X) were added to each well in a volume of 1 uL, with serial dilutions (1:5) from 2 mM to 200 pM (final concentrations in well are 10 uM to 1 pM). Cluster plates are returned to the incubator for 3 days.
After the 3-day treatment period, 100 uL media was removed from each well by aspiration and 100 uL room temperature CTG reagent (Promega Cat #G7573) is added back to each well. The cluster plates are placed on a shaker and incubated at room temperature for 20 minutes. Following this shaking/incubation, cluster plates are read on a luminometer (BMG ClarioStar). IC50 values are obtained by graphing the RLU data vs. compound concentration with nonlinear regression 4-parameter logistic curves (GraphPad Prism).

VCaP cells = assay: VCaP growth inhibition assay (CTG); conditions: Homo sapiens, 216 h, 30 pM R1881, 9 days
Summary of the method: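 Growth was measured by CTG luminescence after a 9-day exposure of VCaP cells to compound (final 10 fM–100 nM, fivefold steps) in the presence of 30 pM final R1881, in phenol red-free DMEM/5% CSS. IC50 values were derived by nonlinear 4-parameter regression of RLU against concentration.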

AR / CBP ternary complex, sequence (P10275 whole entry): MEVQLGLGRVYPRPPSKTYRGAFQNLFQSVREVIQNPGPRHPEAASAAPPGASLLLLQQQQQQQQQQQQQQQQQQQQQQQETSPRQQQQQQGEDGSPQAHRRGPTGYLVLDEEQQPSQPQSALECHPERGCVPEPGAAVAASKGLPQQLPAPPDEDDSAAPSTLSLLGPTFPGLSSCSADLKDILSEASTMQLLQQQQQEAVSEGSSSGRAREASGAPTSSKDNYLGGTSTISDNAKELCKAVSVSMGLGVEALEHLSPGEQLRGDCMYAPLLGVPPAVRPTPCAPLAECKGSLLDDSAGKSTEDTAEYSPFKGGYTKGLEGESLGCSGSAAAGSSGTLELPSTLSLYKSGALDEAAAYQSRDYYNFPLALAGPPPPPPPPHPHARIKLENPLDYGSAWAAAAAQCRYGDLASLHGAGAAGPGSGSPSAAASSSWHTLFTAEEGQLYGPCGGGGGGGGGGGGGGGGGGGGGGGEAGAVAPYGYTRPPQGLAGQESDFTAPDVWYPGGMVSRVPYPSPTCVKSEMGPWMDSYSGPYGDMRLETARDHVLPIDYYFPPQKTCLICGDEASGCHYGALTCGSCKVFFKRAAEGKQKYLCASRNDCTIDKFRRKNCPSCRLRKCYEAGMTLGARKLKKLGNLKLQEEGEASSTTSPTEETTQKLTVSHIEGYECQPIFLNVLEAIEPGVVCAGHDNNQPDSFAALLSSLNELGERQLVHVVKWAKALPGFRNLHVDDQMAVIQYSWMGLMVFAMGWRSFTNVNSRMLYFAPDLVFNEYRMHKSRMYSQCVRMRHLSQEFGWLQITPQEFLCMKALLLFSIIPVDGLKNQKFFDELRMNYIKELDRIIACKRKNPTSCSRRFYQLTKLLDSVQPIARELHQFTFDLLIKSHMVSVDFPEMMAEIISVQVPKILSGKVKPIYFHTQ
AR / CBP ternary complex, sequence (Q92793 2-2442): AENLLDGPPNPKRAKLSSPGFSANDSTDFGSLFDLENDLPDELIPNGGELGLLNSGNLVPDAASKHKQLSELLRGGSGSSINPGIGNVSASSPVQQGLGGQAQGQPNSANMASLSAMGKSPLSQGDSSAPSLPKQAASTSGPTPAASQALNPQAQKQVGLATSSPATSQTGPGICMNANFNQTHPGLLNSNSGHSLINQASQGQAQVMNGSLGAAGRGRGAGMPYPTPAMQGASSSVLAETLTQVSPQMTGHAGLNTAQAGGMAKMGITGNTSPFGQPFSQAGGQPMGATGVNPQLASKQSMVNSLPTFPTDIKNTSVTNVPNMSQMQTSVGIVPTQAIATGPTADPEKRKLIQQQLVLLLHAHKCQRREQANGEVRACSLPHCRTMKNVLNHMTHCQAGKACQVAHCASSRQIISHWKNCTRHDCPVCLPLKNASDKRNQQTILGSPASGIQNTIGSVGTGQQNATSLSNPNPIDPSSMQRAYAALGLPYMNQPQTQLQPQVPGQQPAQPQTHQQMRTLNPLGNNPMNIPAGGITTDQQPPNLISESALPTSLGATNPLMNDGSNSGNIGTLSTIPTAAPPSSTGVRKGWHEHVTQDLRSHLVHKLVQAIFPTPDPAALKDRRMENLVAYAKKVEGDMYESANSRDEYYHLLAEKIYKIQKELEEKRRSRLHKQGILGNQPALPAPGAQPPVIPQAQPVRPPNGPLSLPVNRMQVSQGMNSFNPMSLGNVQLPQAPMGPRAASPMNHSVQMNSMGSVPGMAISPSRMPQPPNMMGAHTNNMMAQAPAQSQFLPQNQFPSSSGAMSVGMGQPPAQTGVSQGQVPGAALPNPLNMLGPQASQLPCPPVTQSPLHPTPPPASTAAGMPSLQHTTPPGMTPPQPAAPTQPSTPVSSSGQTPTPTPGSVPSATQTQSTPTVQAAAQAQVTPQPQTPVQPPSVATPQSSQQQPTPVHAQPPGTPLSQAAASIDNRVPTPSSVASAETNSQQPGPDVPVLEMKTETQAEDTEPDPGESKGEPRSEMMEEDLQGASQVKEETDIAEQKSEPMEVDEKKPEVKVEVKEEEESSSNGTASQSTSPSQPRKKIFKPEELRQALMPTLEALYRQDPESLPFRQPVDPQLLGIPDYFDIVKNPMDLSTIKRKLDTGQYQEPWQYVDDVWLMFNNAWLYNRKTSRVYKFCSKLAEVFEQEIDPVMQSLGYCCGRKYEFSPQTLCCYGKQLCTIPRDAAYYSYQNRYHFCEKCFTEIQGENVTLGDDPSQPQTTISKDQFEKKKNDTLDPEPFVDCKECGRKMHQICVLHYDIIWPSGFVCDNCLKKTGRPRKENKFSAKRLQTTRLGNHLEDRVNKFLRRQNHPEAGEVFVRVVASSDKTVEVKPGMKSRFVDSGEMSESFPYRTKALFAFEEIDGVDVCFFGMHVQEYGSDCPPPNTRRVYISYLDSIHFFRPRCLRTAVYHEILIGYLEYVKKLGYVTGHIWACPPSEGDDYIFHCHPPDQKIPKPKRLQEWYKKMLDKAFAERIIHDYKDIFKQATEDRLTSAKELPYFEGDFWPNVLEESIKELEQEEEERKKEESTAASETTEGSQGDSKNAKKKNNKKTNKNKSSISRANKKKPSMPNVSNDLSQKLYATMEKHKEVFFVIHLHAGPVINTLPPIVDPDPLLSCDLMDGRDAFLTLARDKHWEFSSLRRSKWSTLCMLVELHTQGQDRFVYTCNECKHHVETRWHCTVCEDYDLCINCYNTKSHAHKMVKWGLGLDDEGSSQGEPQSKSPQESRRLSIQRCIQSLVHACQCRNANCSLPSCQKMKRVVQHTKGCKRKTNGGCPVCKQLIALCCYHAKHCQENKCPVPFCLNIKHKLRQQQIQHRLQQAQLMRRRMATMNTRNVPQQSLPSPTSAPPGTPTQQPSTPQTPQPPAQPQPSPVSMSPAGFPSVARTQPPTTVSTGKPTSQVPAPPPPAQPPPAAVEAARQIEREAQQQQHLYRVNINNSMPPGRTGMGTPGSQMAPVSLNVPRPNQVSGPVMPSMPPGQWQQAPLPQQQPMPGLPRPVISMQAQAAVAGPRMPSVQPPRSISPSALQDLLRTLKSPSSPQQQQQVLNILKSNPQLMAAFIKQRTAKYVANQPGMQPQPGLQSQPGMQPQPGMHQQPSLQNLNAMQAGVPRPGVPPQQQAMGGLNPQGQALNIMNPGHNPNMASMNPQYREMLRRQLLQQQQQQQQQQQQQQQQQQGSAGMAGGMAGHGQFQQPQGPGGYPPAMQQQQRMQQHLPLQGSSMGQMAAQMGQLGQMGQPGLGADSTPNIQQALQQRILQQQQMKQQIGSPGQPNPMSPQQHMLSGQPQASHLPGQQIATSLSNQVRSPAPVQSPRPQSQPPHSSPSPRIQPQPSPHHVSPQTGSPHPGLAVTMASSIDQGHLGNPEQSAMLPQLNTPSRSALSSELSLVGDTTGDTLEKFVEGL

Row | SMILES | EC50 (AR / CBP ternary complex) [nM] | IC50 (HEK-293 cells) [µM] | IC50 (VCaP cells) [nM]
1 | CC(=O)N1CCc2c(c(N3CCCc4cc(-c5cnn(C)c5)c(C(F)F)cc43)nn2C2CCN(C(=O)COC3CCN(c4ccc(C(=O)N[C@H]5CC[C@H](Oc6ccc(C#N)c(Cl)c6)CC5)nn4)CC3)CC2)C1 [Compound 1, 6-[4-[2-[4-[5-acetyl-3-[7-(difluoromethyl)-6-(1-methylpyrazol-4-yl)-3,4-dihydro-2H-quinolin-1-yl]-6,7-dihydro-4H-pyrazolo[4,3-c]pyridin-1-yl]-1-piperidyl]-2-oxo-ethoxy]-1-piperidyl]-N-[4-(3-chloro-4-cyano-phenoxy)cyclohexyl]pyridazine-3-carboxamide] | < 1 | > 10 | ≤ 0.1
2 | CC(=O)N1CCc2c(c(N3CCCc4cc(C#N)ccc43)nn2C2CC3(C2)CN(CC2CC4(C2)CN(c2ccc(C(=O)N[C@H]5CC[C@H](Oc6ccc(C#N)c(Cl)c6)CC5)nn2)C4)C3)C1 (stereo partly shown) [Compound 45, 6-[6-[[6-[5-acetyl-3-(6-cyano-3,4-dihydro-2H-quinolin-1-yl)-6,7-dihydro-4H-pyrazolo[4,3-c]pyridin-1-yl]-2-azaspiro [3.3]heptan-2-yl]methyl]-2-azaspiro[3.3]heptan-2-yl]-N-[4-(3-chloro-4-cyano-phenoxy)cyclohexyl] pyridazine-3-carboxamide] | < 1 | – | 0.1 to 1
3 | Cn1cc(-c2cc3cccc(-c4cc(C5=CCN(CC6CCN(c7ccc(C(=O)N[C@H]8CC[C@H](Oc9ccc(C#N)c(Cl)c9)CC8)nn7)CC6)CC5)c5c(c4)n(C)c(=O)n5C)c3cn2)cn1 [Compound 147, N-[4-(3-chloro-4-cyano-phenoxy)cyclohexyl]-6-[4-[[4-[1,3-dimethyl-6-[3-(1-methylpyrazol-4-yl)-8-isoquinolyl]-2-oxo-benzimidazol-4-yl]-3,6-dihydro-2H-pyridin-1-yl]methyl]-1-piperidyl]pyridazine-3-carboxamide] | < 1 | – | 0.1 to 1
